Laboratory results published in patent publication US10206394B2, “Herbicidal compounds” (Syngenta Participations AG, priority 2014, dated 2019).
Like-named read-outs stand apart in the source and are kept apart here.

Assays:
Experiment in all cases: Glasshouse assay for herbicidal activity (pre- and post-emergence), percentage phytotoxicity
Assay type in all cases: in vivo
[1] = tested on: Lolium perenne (LOLPE); details: Lolium perenne, 250 g/ha, visual assessment (100%=total damage, 0%=no damage)
Protocol: (§1) Test—Glasshouse Assay for Herbicidal Activity
(§2) Seeds of a variety of monocotyledonous and dicotyledonous test plants are sown in standard soil in pots. The plants are cultivated for one day (for pre-emergence (PRE)) or for about 12 days (for post-emergence (POST)) under controlled conditions in a glasshouse (warm climate species at 24/18° C., cool climate species at 20/16° C., both at day/night; 16 hours light; 65% humidity).
(§3) The test plants are then grown on, in a glasshouse (greenhouse) under controlled conditions (warm climate species at 24/18° C., cool climate species at 20/16° C., both at day/night; 16 hours light; 65% humidity) and are watered twice daily. 15 days after application of the test herbicide (15 DAA) (for post-emergence), and 20 days after application of the test herbicide (20 DAA) (for pre-emergence), the test plants are evaluated visually, and an assessed percentage phytotoxicity score is given for each herbicidal application on each plant species (with 100%=total damage to plant; 0%=no damage to plant).
(§4) The plant species tested are as follows: Alopecurus myosuroides (ALOMY), Avena fatua (AVEFA), Lolium perenne (LOLPE), Echinochloa crus-galli (ECHCG).

[2] = tested on: Echinochloa crus-galli (ECHCG); details: Echinochloa crus-galli, 250 g/ha, visual assessment (100%=total damage, 0%=no damage)
Protocol: as §1, §2, §3, §4

[3] = tested on: Avena fatua (AVEFA); details: Avena fatua, 250 g/ha, visual assessment (100%=total damage, 0%=no damage)
Protocol: as §1, §2, §3, §4

[4] = tested on: Alopecurus myosuroides (ALOMY); details: Alopecurus myosuroides, 250 g/ha, visual assessment (100%=total damage, 0%=no damage)
Protocol: as §1, §2, §3, §4

[5] = post-emergence, 360 h, post-emergence, 15 DAA, read-out: Post-emergence herbicidal activity (percentage phytotoxicity) LOLPE POST
[6] = pre-emergence, 480 h, pre-emergence, 20 DAA, read-out: Pre-emergence herbicidal activity (percentage phytotoxicity) LOLPE PRE
[7] = post-emergence, 360 h, post-emergence, 15 DAA, read-out: Post-emergence herbicidal activity (percentage phytotoxicity) ECHCG POST
[8] = pre-emergence, 480 h, pre-emergence, 20 DAA, read-out: Pre-emergence herbicidal activity (percentage phytotoxicity) ECHCG PRE
[9] = post-emergence, 360 h, post-emergence, 15 DAA, read-out: Post-emergence herbicidal activity (percentage phytotoxicity) AVEFA POST
[10] = pre-emergence, 480 h, pre-emergence, 20 DAA, read-out: Pre-emergence herbicidal activity (percentage phytotoxicity) AVEFA PRE
[11] = post-emergence, 360 h, post-emergence, 15 DAA, read-out: Post-emergence herbicidal activity (percentage phytotoxicity) ALOMY POST
[12] = pre-emergence, 480 h, pre-emergence, 20 DAA, read-out: Pre-emergence herbicidal activity (percentage phytotoxicity) ALOMY PRE

Row | Compound | pest or weed control at 250 g/ha [1, 5] [%] | pest or weed control at 250 g/ha [1, 6] [%] | pest or weed control at 250 g/ha [2, 7] [%] | pest or weed control at 250 g/ha [2, 8] [%] | pest or weed control at 250 g/ha [3, 9] [%] | pest or weed control at 250 g/ha [3, 10] [%] | pest or weed control at 250 g/ha [4, 11] [%] | pest or weed control at 250 g/ha [4, 12] [%]
1 | Cc1cc(C)c(C2C(=O)CC(CC(=O)Nc3ccc(C#N)cc3)C2=O)c(C)c1 (stereo not shown) [Compound B1] | 20 | 20 | 60 | 70 | 0 | 0 | 0 | 20
2 | COc1ccc(NC(=O)CC2CC(=O)C(c3c(C)cc(C)cc3C)C2=O)cc1OC (stereo not shown) [Compound B2] | 30 | 80 | 10 | 80 | 30 | 60 | 40 | 40
3 | Cc1cc(C)c(C2C(=O)CC(CC(=O)Nc3ccc(F)cc3F)C2=O)c(C)c1 (stereo not shown) [Compound B3] | 80 | 90 | 70 | 90 | 10 | 50 | 0 | 60
4 | Cc1cc(-c2ncc(F)cn2)cc(C)c1C1C(=O)CC(CC(=O)NC(C)(C)C)C1=O (stereo not shown) [Compound B5] | 90 | 100 | 100 | 100 | 100 | 90 | 100 | 100
5 | COCCOCCCNC(=O)CC1CC(=O)C(c2c(C)cc(C)cc2C)C1=O (stereo not shown) [Compound B7] | 80 | 90 | 100 | 80 | 100 | 90 | 100 | 100
6 | Cc1cc(C)c(C2C(=O)CC(CC(N)=O)C2=O)c(C)c1 (stereo not shown) [Compound B8] | 90 | 100 | 100 | 90 | 100 | 90 | 80 | 80
7 | Cc1cc(C)c(C2C(=O)CC(CC(=O)NCc3cccc(C#N)c3)C2=O)c(C)c1 (stereo not shown) [Compound B9] | 70 | 90 | 70 | 100 | 70 | 70 | 70 | 70
8 | COC(=O)c1cccc(CNC(=O)CC2CC(=O)C(c3c(C)cc(C)cc3C)C2=O)c1 (stereo not shown) [Compound B10] | 30 | 0 | 70 | 0 | 70 | 0 | 30 | 0
9 | COc1cccc(CNC(=O)CC2CC(=O)C(c3c(C)cc(C)cc3C)C2=O)c1 (stereo not shown) [Compound B11] | 80 | 90 | 70 | 90 | 70 | 70 | 70 | 70
10 | Cc1cc(C)c(C2C(=O)CC(CC(=O)NCc3ccccc3C)C2=O)c(C)c1 (stereo not shown) [Compound B12] | 90 | 90 | 90 | 100 | 60 | 30 | 60 | 70
11 | Cc1cc(C)c(C2C(=O)CC(CC(=O)NCc3ccc(Cl)cc3)C2=O)c(C)c1 (stereo not shown) [Compound B13] | 90 | 90 | 80 | 90 | 70 | 40 | 50 | 50
12 | Cc1ccc(CNC(=O)CC2CC(=O)C(c3c(C)cc(C)cc3C)C2=O)cc1 (stereo not shown) [Compound B14] | 90 | 90 | 90 | 70 | 80 | 70 | 70 | 70
13 | Cc1cc(C)c(C2C(=O)CC(CC(=O)NCc3ccc(C(F)(F)F)cc3)C2=O)c(C)c1 (stereo not shown) [Compound B15] | 90 | 100 | 90 | 90 | 90 | 80 | 70 | 80
14 | Cc1cc(C)c(C2C(=O)CC(CC(=O)NCc3ccc(F)cc3)C2=O)c(C)c1 (stereo not shown) [Compound B16] | 90 | 90 | 90 | 90 | 70 | 30 | 70 | 80
15 | Cc1cc(C)c(C2C(=O)CC(CC(=O)NCc3ccccc3Cl)C2=O)c(C)c1 (stereo not shown) [Compound B17] | 70 | 90 | 70 | 90 | 50 | 0 | 40 | 20
16 | COc1ccc(CNC(=O)CC2CC(=O)C(c3c(C)cc(C)cc3C)C2=O)cc1 (stereo not shown) [Compound B18] | 100 | 100 | 90 | 90 | 90 | 80 | 80 | 70
17 | Cc1cc(C)c(C2C(=O)CC(CC(=O)NCc3ccccc3C(F)(F)F)C2=O)c(C)c1 (stereo not shown) [Compound B19] | 70 | 80 | 70 | 90 | 50 | 20 | 50 | 10
18 | Cc1cc(C)c(C2C(=O)CC(CC(=O)NCc3cccc([N+](=O)[O-])c3)C2=O)c(C)c1 (stereo not shown) [Compound B20] | 40 | 70 | 90 | 90 | 80 | 90 | 70 | 80
19 | Cc1cc(C)c(C2C(=O)CC(CC(=O)NCc3cccc(F)c3)C2=O)c(C)c1 (stereo not shown) [Compound B21] | 90 | 100 | 90 | 100 | 90 | 50 | 80 | 80
20 | Cc1cc(C)c(C2C(=O)CC(CC(=O)NCc3ccccc3Br)C2=O)c(C)c1 (stereo not shown) [Compound B22] | 80 | 90 | 80 | 90 | 20 | 100 | 30 | 30
